The source of these data is EP4745137A1 (Gluetacs Therapeutics (Shanghai) Co., Ltd., priority 2023, dated 2025).

For assay [1], the target named is T1, human Cereblon WT GST-tagged protein (Homo sapiens, UniProt Q96SW2).
T1 construct: purchased CISBIO 64BDCRBNPEH
The assay can be described thus: CRBN-binding affinity by HTRF (CEREBLON BINDING kit). Conditions: HTRF inhibitory activity, CEREBLON BINDING kit; read-out: HTRF IC50.

For the next assay, the system named is MM.1R. The assay can be described thus: Tumor cell proliferation inhibition (CellTiter-Meiluncell Luminescent Cell Viability Assay), MM.1R. To be noted: Homo sapiens, 96 h, read-out: inhibitory activity (IC50, nM) against tumor cells proliferation, MM.1R.
Another assay addresses T2, IKZF3 (Homo sapiens, UniProt Q96SW2+Q9UKT9).
T2 construct: endogenous in cells; host or cells: hPBMCs (Milecell Biotechnologies)
The assay can be described thus: Western-blot assay of substrate protein degradation in hPBMCs, IKZF3. In kind it is cell-based. To be noted: 24 hours of compound treatment, compounds tested at 50 nM and 500 nM (concentration of the table not stated).

For a further assay, the system named is Vcap. The assay can be described thus: Tumor cell proliferation inhibition (CellTiter-Meiluncell Luminescent Cell Viability Assay), Vcap. To be noted: Homo sapiens, 96 h, read-out: inhibitory activity (IC50, nM) against tumor cells proliferation, Vcap.
The test system of another assay is CAL-62. The assay can be described thus: Tumor cell proliferation inhibition (CellTiter-Meiluncell Luminescent Cell Viability Assay), CAL-62. Conditions: Homo sapiens, CAL-62, 96 h, read-out: inhibitory activity (IC50, nM) against tumor cells proliferation, CAL-62.
The test system of the next assay is CCRF-CEM. In words: Tumor cell proliferation inhibition (CellTiter-Meiluncell Luminescent Cell Viability Assay), CCRF-CEM. To be noted: Homo sapiens, 96 h, read-out: inhibitory activity (IC50, nM) against tumor cells proliferation, CCRF-CEM.
The test system of another assay is Jurkat. In words: Tumor cell proliferation inhibition (CellTiter-Meiluncell Luminescent Cell Viability Assay), Jurkat. To be noted: Homo sapiens, 96 h, read-out: inhibitory activity (IC50, nM) against tumor cells proliferation, Jurkat.
In a further assay the test system is NCI-H1975. The assay can be described thus: Tumor cell proliferation inhibition (CellTiter-Meiluncell Luminescent Cell Viability Assay), NCI-H1975. To be noted: Homo sapiens, NCI-H1975, 96 h, read-out: inhibitory activity (IC50, nM) against tumor cells proliferation, H1975.
The target of another assay is T3, IKZF1 (Homo sapiens, UniProt Q13422+Q96SW2).
T3 construct: endogenous in cells; host or cells: hPBMCs (Milecell Biotechnologies)
In words: Western-blot assay of substrate protein degradation in hPBMCs, IKZF1. Conditions: 24 hours of compound treatment, compounds tested at 50 nM and 500 nM (concentration of the table not stated). The format is cell-based.

The target of another assay is T4, IKZF2 (Homo sapiens, UniProt Q96SW2+Q9UKS7).
T4 construct: endogenous in cells; host or cells: hPBMCs (Milecell Biotechnologies)
The assay can be described thus: Western-blot assay of substrate protein degradation in hPBMCs, IKZF2. To be noted: 24 hours of compound treatment, compounds tested at 50 nM and 500 nM (concentration of the table not stated). In kind it is cell-based.

For the next assay, the target named is T5, WEE1 (Homo sapiens, UniProt P30291+Q96SW2).
T5 construct: endogenous in cells; host or cells: hPBMCs (Milecell Biotechnologies)
In words: Western-blot assay of substrate protein degradation in hPBMCs, WEE1. The format is cell-based. Conditions: 24 hours of compound treatment, compounds tested at 50 nM and 500 nM (concentration of the table not stated).

Another assay has as its target T6, CK1α (Homo sapiens, UniProt P48729+Q96SW2).
T6 construct: endogenous in cells; host or cells: hPBMCs (Milecell Biotechnologies)
The assay can be described thus: Western-blot assay of substrate protein degradation in hPBMCs, CK1α. In kind it is cell-based. Conditions: 24 hours of compound treatment, compounds tested at 50 nM and 500 nM (concentration of the table not stated).

The next assay deals with T7, GSPT1 (Homo sapiens, UniProt P15170+Q96SW2).
T7 construct: endogenous in cells; host or cells: hPBMCs (Milecell Biotechnologies)
The assay can be described thus: Western-blot assay of substrate protein degradation in hPBMCs, GSPT1. In kind it is cell-based. Conditions: 24 hours of compound treatment, compounds tested at 50 nM and 500 nM (concentration of the table not stated).

The test system of another assay is SW620. In words: Tumor cell proliferation inhibition (CellTiter-Meiluncell Luminescent Cell Viability Assay), SW620. Conditions: Homo sapiens, SW-620, 96 h, read-out: inhibitory activity (IC50, nM) against tumor cells proliferation, SW620.
The subject of assay [2] is Human acute T lymphocytic leukemia cells (Molt-4). The assay can be described thus: Tumor cell proliferation inhibition (CellTiter-Meiluncell Luminescent Cell Viability Assay), Molt-4. Conditions: MOLT-4, 96 h, read-out: inhibitory activity (IC50, nM) against tumor cells proliferation, Molt 4.
Another assay deals with MGC803. The assay can be described thus: Tumor cell proliferation inhibition (CellTiter-Meiluncell Luminescent Cell Viability Assay), MGC803. To be noted: Homo sapiens, MGC-803, 96 h, read-out: inhibitory activity (IC50, nM) against tumor cells proliferation, MGC803.

T5 sequence (P30291 whole entry): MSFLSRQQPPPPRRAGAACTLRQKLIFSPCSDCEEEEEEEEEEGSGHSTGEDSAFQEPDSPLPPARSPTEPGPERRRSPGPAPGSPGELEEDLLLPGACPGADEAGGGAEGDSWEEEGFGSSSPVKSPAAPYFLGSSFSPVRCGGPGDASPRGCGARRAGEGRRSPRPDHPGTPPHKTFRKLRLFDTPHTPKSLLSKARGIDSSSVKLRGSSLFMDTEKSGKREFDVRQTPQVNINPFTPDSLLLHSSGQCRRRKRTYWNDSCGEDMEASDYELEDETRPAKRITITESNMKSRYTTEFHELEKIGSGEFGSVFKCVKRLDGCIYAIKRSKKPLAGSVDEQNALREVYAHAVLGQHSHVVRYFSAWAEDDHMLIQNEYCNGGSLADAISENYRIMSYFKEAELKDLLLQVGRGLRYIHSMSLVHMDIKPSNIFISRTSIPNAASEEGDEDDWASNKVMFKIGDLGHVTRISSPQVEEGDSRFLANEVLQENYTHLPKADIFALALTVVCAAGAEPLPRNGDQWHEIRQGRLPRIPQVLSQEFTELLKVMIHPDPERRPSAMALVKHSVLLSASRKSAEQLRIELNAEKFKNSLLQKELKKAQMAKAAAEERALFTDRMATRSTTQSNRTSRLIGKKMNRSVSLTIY
T5 sequence (Q96SW2 whole entry): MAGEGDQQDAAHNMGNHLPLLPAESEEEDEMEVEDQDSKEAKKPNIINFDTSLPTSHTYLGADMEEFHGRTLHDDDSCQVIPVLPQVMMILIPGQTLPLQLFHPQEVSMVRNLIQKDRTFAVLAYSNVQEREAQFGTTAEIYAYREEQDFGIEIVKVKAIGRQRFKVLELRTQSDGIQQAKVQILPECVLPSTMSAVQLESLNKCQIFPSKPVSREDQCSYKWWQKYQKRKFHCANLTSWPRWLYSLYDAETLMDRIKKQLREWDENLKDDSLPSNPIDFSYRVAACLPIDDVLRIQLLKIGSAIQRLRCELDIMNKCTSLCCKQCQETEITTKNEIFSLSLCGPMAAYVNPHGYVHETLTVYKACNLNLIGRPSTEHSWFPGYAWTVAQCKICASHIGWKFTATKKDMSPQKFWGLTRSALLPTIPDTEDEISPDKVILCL
T5 sequence (Q16531 whole entry partner): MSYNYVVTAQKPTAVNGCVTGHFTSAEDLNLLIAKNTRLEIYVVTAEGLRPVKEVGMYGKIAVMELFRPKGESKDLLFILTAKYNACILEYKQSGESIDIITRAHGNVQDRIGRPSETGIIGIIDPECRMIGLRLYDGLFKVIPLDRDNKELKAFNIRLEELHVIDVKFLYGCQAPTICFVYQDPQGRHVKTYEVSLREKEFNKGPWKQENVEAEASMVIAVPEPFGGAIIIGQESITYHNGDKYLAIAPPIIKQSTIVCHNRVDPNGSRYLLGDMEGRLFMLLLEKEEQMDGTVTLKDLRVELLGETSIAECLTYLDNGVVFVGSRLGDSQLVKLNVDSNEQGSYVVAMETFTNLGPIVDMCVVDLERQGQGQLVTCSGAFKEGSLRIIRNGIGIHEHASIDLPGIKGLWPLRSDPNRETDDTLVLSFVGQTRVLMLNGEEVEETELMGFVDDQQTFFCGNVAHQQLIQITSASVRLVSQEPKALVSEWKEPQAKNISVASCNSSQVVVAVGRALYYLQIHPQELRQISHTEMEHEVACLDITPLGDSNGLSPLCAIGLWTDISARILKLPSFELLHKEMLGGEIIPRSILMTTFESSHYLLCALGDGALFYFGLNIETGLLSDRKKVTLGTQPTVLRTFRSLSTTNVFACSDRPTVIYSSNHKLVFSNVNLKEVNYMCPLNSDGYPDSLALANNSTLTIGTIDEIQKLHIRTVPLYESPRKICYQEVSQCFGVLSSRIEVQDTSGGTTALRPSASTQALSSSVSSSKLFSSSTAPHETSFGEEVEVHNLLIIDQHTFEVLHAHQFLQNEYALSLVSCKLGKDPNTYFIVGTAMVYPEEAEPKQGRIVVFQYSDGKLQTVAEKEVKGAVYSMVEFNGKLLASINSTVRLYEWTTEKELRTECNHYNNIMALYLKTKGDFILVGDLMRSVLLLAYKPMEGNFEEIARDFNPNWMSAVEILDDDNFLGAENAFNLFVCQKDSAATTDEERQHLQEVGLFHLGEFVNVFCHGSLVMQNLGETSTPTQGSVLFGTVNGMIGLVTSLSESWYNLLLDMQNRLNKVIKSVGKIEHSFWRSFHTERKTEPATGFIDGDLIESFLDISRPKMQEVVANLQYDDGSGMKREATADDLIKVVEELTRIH
T2 sequence (Q9UKT9 whole entry): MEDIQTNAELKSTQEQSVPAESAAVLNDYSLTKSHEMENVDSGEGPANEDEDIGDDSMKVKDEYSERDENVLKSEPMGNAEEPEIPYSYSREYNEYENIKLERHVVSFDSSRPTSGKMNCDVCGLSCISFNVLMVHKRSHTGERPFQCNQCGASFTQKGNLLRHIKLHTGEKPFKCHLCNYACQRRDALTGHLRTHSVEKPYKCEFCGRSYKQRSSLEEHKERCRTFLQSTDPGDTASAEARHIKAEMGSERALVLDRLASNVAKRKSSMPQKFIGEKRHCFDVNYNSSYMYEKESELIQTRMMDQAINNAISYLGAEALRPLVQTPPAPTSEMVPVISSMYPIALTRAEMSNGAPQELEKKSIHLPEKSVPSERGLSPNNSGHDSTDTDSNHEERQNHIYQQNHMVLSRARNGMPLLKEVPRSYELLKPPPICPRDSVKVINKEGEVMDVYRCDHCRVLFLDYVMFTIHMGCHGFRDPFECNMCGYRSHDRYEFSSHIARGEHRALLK
T2 sequence (Q96SW2 whole entry): as the sequence (Q96SW2 whole entry) above
T2 sequence (Q16531 whole entry partner): as the sequence (Q16531 whole entry partner) above
T7 sequence (P15170 whole entry): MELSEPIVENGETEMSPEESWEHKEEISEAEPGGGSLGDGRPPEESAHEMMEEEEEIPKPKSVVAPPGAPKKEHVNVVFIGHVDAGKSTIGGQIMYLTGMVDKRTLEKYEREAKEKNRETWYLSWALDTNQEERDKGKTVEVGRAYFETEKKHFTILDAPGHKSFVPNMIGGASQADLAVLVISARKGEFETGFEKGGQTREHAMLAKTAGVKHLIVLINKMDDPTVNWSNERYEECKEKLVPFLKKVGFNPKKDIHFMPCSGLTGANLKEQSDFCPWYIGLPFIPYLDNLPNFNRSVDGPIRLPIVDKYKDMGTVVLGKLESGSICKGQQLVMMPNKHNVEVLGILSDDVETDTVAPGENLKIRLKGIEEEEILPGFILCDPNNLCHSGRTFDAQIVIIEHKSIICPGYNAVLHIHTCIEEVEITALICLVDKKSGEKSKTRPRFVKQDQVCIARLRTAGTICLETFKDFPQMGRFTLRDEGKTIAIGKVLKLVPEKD
T7 sequence (Q96SW2 whole entry): as the sequence (Q96SW2 whole entry) above
T7 sequence (Q16531 whole entry partner): as the sequence (Q16531 whole entry partner) above
T6 sequence (P48729 whole entry): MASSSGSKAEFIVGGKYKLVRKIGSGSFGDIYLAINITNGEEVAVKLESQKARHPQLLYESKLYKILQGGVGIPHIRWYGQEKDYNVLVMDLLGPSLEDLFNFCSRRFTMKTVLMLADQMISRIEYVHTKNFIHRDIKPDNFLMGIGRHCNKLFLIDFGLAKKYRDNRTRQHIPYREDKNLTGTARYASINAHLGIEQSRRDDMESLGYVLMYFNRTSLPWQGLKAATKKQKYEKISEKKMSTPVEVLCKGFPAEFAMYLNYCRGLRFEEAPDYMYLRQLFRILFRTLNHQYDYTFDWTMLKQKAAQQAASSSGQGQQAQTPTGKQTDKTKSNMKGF
T6 sequence (Q96SW2 whole entry): as the sequence (Q96SW2 whole entry) above
T6 sequence (Q16531 whole entry partner): as the sequence (Q16531 whole entry partner) above
T3 sequence (Q13422 whole entry): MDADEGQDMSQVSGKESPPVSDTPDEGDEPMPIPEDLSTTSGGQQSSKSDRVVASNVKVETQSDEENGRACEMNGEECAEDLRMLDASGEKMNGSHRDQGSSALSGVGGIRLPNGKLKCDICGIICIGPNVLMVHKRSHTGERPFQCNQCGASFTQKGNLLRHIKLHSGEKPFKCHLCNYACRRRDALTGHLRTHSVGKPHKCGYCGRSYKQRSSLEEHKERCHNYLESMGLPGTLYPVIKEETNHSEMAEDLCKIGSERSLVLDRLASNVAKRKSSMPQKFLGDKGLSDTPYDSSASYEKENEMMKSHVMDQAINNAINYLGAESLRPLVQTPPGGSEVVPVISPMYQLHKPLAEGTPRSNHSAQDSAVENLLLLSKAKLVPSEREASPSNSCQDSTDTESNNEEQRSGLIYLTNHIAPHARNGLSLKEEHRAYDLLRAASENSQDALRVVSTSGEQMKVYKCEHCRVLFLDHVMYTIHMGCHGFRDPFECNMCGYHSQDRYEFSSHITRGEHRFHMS
T3 sequence (Q96SW2 whole entry): as the sequence (Q96SW2 whole entry) above
T3 sequence (Q16531 whole entry partner): as the sequence (Q16531 whole entry partner) above
T1 sequence (Q96SW2 whole entry): as the sequence (Q96SW2 whole entry) above
Procedure for CCRF-CEM: (§1) The tumor cells used herein were cultured in a cell culture medium listed in table 2 at 37°C in an incubator with 5% CO2. Prior to experimentation, all cell lines used were correctly identified by STR profiling, and tested negative for mycoplasma contamination using a mycoplasma detection kit through routine screenings.
(§2) On the following day, the test compounds of the present disclosure were subjected to serial dilution. […] Subsequently, 0.5 µL of the test compound dilution was transferred into the 96-well plate containing the cells, with each well containing 100 µL of cell culture medium. […] Into the 96-well plate, the diluted test compounds and corresponding detection reagents were added, resulting in final test compound concentrations of 500 nM and 10 nM, respectively. The experimental procedure is described below using the diluted 2 µM test compound as an example.
(§3) After the cells were treated with the compounds of the present disclosure for a specified period (the treatment durations were shown in Table 3), the cell viability assay reagent was added to the culture medium according to the kit's instructions to determine cell viability. […] All controls were treated using the same procedure as the compounds of the present disclosure. The growth inhibition curves for the compounds of the present disclosure were plotted using Prism GraphPad software, and the IC50 values were calculated therefrom.
Procedure for SW620: as §1, §2, §3

For `O=C1CCC(N2Cc3cc(CN4CCN(c5ccc(F)cc5F)CC4)ccc3C2=O)C(=O)N1` (stereo not shown) [GT-04438, 3-(5-((4-(2,4-difluorophenyl)piperazin-1-yl)methyl)-1-oxoisoindolin-2-yl)piperidine-2,6-dione], the IC50 in assay [1] fell in the range of 500 to 1000 nM; in the assay on MM.1R, 10 to 50 nM; in the assay with Vcap, 50 to 100 nM; with CAL-62, 10 to 50 nM; in the assay on CCRF-CEM, 10 to 50 nM; in the assay on Jurkat, 10 to 50 nM. Besides, the IC50 with NCI-H1975 was in the range of 500 to 1000 nM; in the assay on SW620, 100 to 500 nM; in [2] it was 10 to 50 nM. Also, the “IKZF3 substrate protein remaining %” value on IKZF3 is on record as “A (0% ≤ substrate protein remaining % ≤ 80%)”. Further, on IKZF1, the “IKZF 1 substrate protein remaining %” value is reported as “A (0% ≤ substrate protein remaining % ≤ 80%)”. In addition, on IKZF2, the “IKZF2 substrate protein remaining %” value was “A (0% ≤ substrate protein remaining % ≤ 80%)”. In addition, the “Weel substrate protein remaining %” value on WEE1 is given as “A (0% ≤ substrate protein remaining % ≤ 80%)”. Further, the “CK1a substrate protein remaining %” value on CK1α was “A (0% ≤ substrate protein remaining % ≤ 80%)”. Further, on GSPT1, the “GSPT1 substrate protein remaining %” value was “A (0% ≤ substrate protein remaining % ≤ 80%)”.
Turning to `O=C1CCC(N2Cc3cc(CN4CCC(c5ccccc5)CC4)ccc3C2=O)C(=O)N1` (stereo not shown) [GT-04465, 3-(1-oxo-5-((4-phenylpiperidin-1-yl)methyl)isoindolin-2-yl)piperidine-2,6-dione], the IC50 lay within 1000 to 1500 nM in [1]; 100 to 500 nM with MGC803; 10 to 50 nM in the assay on MM.1R; 50 to 100 nM in the assay on Vcap; 10 to 50 nM in the assay on CAL-62; 10 to 50 nM in the assay with CCRF-CEM. The IC50 in the assay on Jurkat was 10 to 50 nM; in the assay with NCI-H1975 it was 500 to 1000 nM; with SW620, 100 to 500 nM; in assay [2] it was 10 to 50 nM. In addition, the “IKZF3 substrate protein remaining %” value at IKZF3 is “A (0% ≤ substrate protein remaining % ≤ 80%)”. Moreover, the “IKZF 1 substrate protein remaining %” value on IKZF1 is on record as “A (0% ≤ substrate protein remaining % ≤ 80%)”. Also, at IKZF2, the “IKZF2 substrate protein remaining %” value is given as “A (0% ≤ substrate protein remaining % ≤ 80%)”. In addition, the “Weel substrate protein remaining %” value on WEE1 is reported as “A (0% ≤ substrate protein remaining % ≤ 80%)”. Moreover, at CK1α, the “CK1a substrate protein remaining %” value is “A (0% ≤ substrate protein remaining % ≤ 80%)”. Further, the “GSPT1 substrate protein remaining %” value on GSPT1 is recorded as “A (0% ≤ substrate protein remaining % ≤ 80%)”.
As for `O=C1CCC(N2Cc3cc(CN4CCC(c5ccc(Cl)cc5)CC4)ccc3C2=O)C(=O)N1` (stereo not shown) [GT-04469, 3-(5-((4-(4-chlorophenyl)piperidin-1-yl)methyl)-1-oxoisoindolin-2-yl)piperidine-2,6-dione], the IC50 in assay [1] is 500 to 1000 nM; in the assay with MGC803, 500 to 1000 nM; in the assay on MM.1R, 10 to 50 nM; in the assay with Vcap it was 50 to 100 nM; in the assay on CAL-62, 10 to 50 nM; with CCRF-CEM it was 5 to 10 nM. Besides, the IC50 in the assay on Jurkat was in the range of 10 to 50 nM; in the assay on SW620, 500 to 1000 nM; in assay [2] it was 10 to 50 nM. The “IKZF3 substrate protein remaining %” value at IKZF3 was “A (0% ≤ substrate protein remaining % ≤ 80%)”. For the same compound, on IKZF1, the “IKZF 1 substrate protein remaining %” value is “A (0% ≤ substrate protein remaining % ≤ 80%)”. The “IKZF2 substrate protein remaining %” value at IKZF2 is on record as “A (0% ≤ substrate protein remaining % ≤ 80%)”. Moreover, on WEE1, the “Weel substrate protein remaining %” value was “A (0% ≤ substrate protein remaining % ≤ 80%)”. In addition, at CK1α, the “CK1a substrate protein remaining %” value was “A (0% ≤ substrate protein remaining % ≤ 80%)”. The “GSPT1 substrate protein remaining %” value at GSPT1 was “A (0% ≤ substrate protein remaining % ≤ 80%)”.
On to `O=C1CCC(N2Cc3cc(CN4CCN(c5cccc(F)n5)CC4)ccc3C2=O)C(=O)N1` (stereo not shown) [GT-04498, 3-(5-((4-(6-fluoropyridin-2-yl)piperazin-1-yl)methyl)-1-oxoisoindolin-2-yl)piperidine-2,6-dione], for which the IC50 in assay [1] was 500 to 1000 nM; in the assay with MM.1R, 50 to 100 nM; in the assay with Vcap, 100 to 500 nM; in the assay on CAL-62, 50 to 100 nM; in the assay on CCRF-CEM it was 10 to 50 nM; in the assay with Jurkat, 10 to 50 nM. Besides, the IC50 with SW620 fell in the range of 500 to 1000 nM; in assay [2], 10 to 50 nM. In addition, the “IKZF3 substrate protein remaining %” value on IKZF3 is listed as “A (0% ≤ substrate protein remaining % ≤ 80%)”. Besides, the “IKZF 1 substrate protein remaining %” value on IKZF1 is reported as “A (0% ≤ substrate protein remaining % ≤ 80%)”. The “IKZF2 substrate protein remaining %” value at IKZF2 is “A (0% ≤ substrate protein remaining % ≤ 80%)”. Also, the “Weel substrate protein remaining %” value on WEE1 is reported as “A (0% ≤ substrate protein remaining % ≤ 80%)”. The “CK1a substrate protein remaining %” value at CK1α is on record as “A (0% ≤ substrate protein remaining % ≤ 80%)”. For the same compound, the “GSPT1 substrate protein remaining %” value at GSPT1 is reported as “A (0% ≤ substrate protein remaining % ≤ 80%)”.
On to `Cc1ccsc1C1CCN(Cc2ccc3c(c2)CN(C2CCC(=O)NC2=O)C3=O)CC1` (stereo not shown) [GT-04502, 3-(5-((4-(3-methylthiophen-2-yl)piperidin-1-yl)methyl)-1-oxoisoindolin-2-yl)piperidine-2,6-dione], for which the IC50 in assay [1] was in the range of 500 to 1000 nM; in the assay on MM.1R, 10 to 50 nM; with Vcap, 50 to 100 nM; with CAL-62 it was 10 to 50 nM; in the assay with CCRF-CEM, 10 to 50 nM; in the assay with Jurkat it was 10 to 50 nM. Moreover, the IC50 with SW620 was in the range of 100 to 500 nM; in assay [2] it was 10 to 50 nM. Further, the “IKZF3 substrate protein remaining %” value at IKZF3 is recorded as “A (0% ≤ substrate protein remaining % ≤ 80%)”. Further, the “IKZF 1 substrate protein remaining %” value at IKZF1 was “A (0% ≤ substrate protein remaining % ≤ 80%)”. Besides, the “IKZF2 substrate protein remaining %” value on IKZF2 is listed as “A (0% ≤ substrate protein remaining % ≤ 80%)”. Also, on WEE1, the “Weel substrate protein remaining %” value was “A (0% ≤ substrate protein remaining % ≤ 80%)”. Moreover, the “CK1a substrate protein remaining %” value on CK1α is recorded as “A (0% ≤ substrate protein remaining % ≤ 80%)”. In addition, the “GSPT1 substrate protein remaining %” value on GSPT1 is on record as “A (0% ≤ substrate protein remaining % ≤ 80%)”.
In the case of `Cc1cscc1C1CCN(Cc2ccc3c(c2)CN(C2CCC(=O)NC2=O)C3=O)CC1` (stereo not shown) [GT-04504, 3-(5-((4-(4-methylthiophen-3-yl)piperidin-1-yl)methyl)-1-oxoisoindolin-2-yl)piperidine-2,6-dione], the IC50 in [1] lay within 500 to 1000 nM; in the assay on MM.1R, 10 to 50 nM; in the assay with Vcap, 50 to 100 nM; with CAL-62, 10 to 50 nM; with CCRF-CEM, 10 to 50 nM; with Jurkat it was 10 to 50 nM. Besides, the IC50 lay in the range of 100 to 500 nM in the assay with SW620 and 10 to 50 nM in assay [2]. Moreover, the “IKZF3 substrate protein remaining %” value on IKZF3 is “A (0% ≤ substrate protein remaining % ≤ 80%)”. Moreover, the “IKZF 1 substrate protein remaining %” value on IKZF1 is on record as “A (0% ≤ substrate protein remaining % ≤ 80%)”. At IKZF2, the “IKZF2 substrate protein remaining %” value is “A (0% ≤ substrate protein remaining % ≤ 80%)”. Also, the “Weel substrate protein remaining %” value on WEE1 is “A (0% ≤ substrate protein remaining % ≤ 80%)”. Moreover, the “CK1a substrate protein remaining %” value on CK1α was “B (80%< substrate protein remaining %≤ 100%)”. Also, at GSPT1, the “GSPT1 substrate protein remaining %” value is on record as “A (0% ≤ substrate protein remaining % ≤ 80%)”.
